Results taken from publication PMC12289066, “Identification of glutathione transferase (GST P1) inhibitors via a high-throughput screening assay and implications as alternative treatment options for breast cancers” (PLOS One, 2025).

Biological target: T1, GST P1-1 (Homo sapiens, UniProt P09211)
T1 construct: purchased Sigma-Aldrich
Assay: High-throughput GST P1-1 inhibition assay (384-well screen, CDNB/GSH)
Assay type: biochemical
Conditions: compound 10 μM; score 0 = negative control (DMSO), 1 = positive control (EA 50 μM); average of duplicate
Method: Each drug compound was added to the respective well at a volume of 80 nL of 10 mM stock solution in DMSO, yielding a final compound concentration of 10 μM and a final DMSO concentration of 0.1%. Each plate’s first and last two columns were used as negative (no compound added – 80 nL per well of DMSO) and positive (80 nL of EA added with a final concentration of 50 μM) controls, respectively. The Gyger Certus Flex dispenser was set up using a freshly prepared 1 mM of GSH and 20 nM of GST P1-1, pH 7.4, in one syringe and 8 mM CDNB solution in pure ethanol in the other syringe. Into each well 80 μL of GST-GSH solution was dispensed and incubated at 25°C for 20 minutes before the reaction was initiated by the addition of 4 μL of CDNB solution. The plates were incubated for 2 h in the dark at 25°C and then the absorbance was of each well recorded on a BioTek Synergy NEO HTS multimode plate reader (Agilent®) at a wavelength of 340 nm.
The z’factor was calculated for each plate according to Zhang et al.. The Z-factor is a dimensionless, simple statistical characteristic for each HTS assay. This provides a valuable tool for the comparison and assessment of the quality of assays, and can be utilized in assay optimization and validation. For each plate, the concentration of product was normalized by assigning a score of 0 (0%) to the negative control (average of maximal concentration of product measured in the presence of enzyme without any inhibitor) and a score of 1 (100%) was assigned to the positive control (average minimal concentration of product measured in the presence of enzyme with the reference inhibitor, i.e., EA). The experiment was performed in duplicate and the score for each drug compound was calculated as an average ± standard deviation. […] An internal laboratory information management system (LIMS) was used for basic data processing, management, visualization, and statistical hit validation.

T1 sequence (P09211 2-210 limits assumed): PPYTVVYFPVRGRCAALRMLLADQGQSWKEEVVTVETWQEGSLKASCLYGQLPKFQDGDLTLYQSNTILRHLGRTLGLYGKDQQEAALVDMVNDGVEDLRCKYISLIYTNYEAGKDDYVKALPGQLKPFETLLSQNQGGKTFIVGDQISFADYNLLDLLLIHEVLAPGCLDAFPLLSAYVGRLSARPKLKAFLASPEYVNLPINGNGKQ

Compound | Score
O=C(O)C(Cc1ccccc1[N+](=O)[O-])=NNc1nc(-c2ccc(Cl)c(Cl)c2)cs1 (mixture of isomers) [4EGI-1] | 0.730
CC#C[C@@H](CC(=O)[O-])c1ccc(OCc2cccc(-c3ccc(C(F)(F)F)cc3)c2)cc1.CC#C[C@@H](CC(=O)[O-])c1ccc(OCc2cccc(-c3ccc(C(F)(F)F)cc3)c2)cc1.O.[Ca+2] [AMG 837 (calcium hydrate)] | 0.783
NC[C@@](O)(c1ccc(Cl)cc1)c1ccc(-c2cn[nH]c2)cc1 [AT13148] | 0.738
O=C1c2c(O)cccc2Cc2cccc(O)c21 [Anthralin] | 0.694
CC(C)(c1ccc(OCC2CO2)cc1)c1ccc(OCC2CO2)cc1 (stereo not drawn) [BADGE] | 0.715
Oc1c(Cl)cc(Cl)cc1Sc1cc(Cl)cc(Cl)c1O [Bithionol] | 1.007
O=C1C=Cc2cc(Br)ccc2C1=O [Bonaphthone] | 0.770
CCN(CC)c1ccc(C(=C2C=CC(=[N+](CC)CC)C=C2)c2ccccc2)cc1 [Brilliant-green] | 0.783
CCOC(=O)Nc1cc(-c2ccc(C)c(NS(C)(=O)=O)c2)nn2c(C)nnc12 [Bromosporine] | 0.801
CC(C)(C)c1ccc(CN2CCN(C(c3ccccc3)c3ccc(Cl)cc3)CC2)cc1 (stereo not drawn) [Buclizine] | 0.694
O=C(O)c1ccc(-c2ccc3cc(O)c(C45CC6CC(CC(C6)C4)C5)cc3c2)cc1 [CD-1530] | 0.979
O=C(O)C1(c2ccc(-c3ccc(Cl)c(Cl)c3)c(F)c2)CC1 [CHF5074] | 0.911
COc1cc(-c2ccc(N=Nc3ccc4c(S(=O)(=O)[O-])cc(S(=O)(=O)[O-])c(N)c4c3O)c(OC)c2)ccc1N=Nc1ccc2c(S(=O)(=O)[O-])cc(S(=O)(=O)[O-])c(N)c2c1O.[Na+].[Na+].[Na+].[Na+] [Chicago sky blue 6B] | 0.863
CCCCCC/C=C/C=C\CCCCCCCC(=O)O [Cis-9,trans-11-Conjugated-linoleic-acid] | 0.796
O=c1c(-c2ccccc2)c1-c1ccccc1 [Diphencyprone] | 0.744
CC/C=C\C/C=C\C/C=C\C/C=C\C/C=C\C/C=C\CCC(=O)O [Docosahexaenoic Acid] | 0.821
CC(C)c1cccc2c(-c3ccccc3)cc(-c3ccc(-c4ccc(C(=O)O)cc4)[nH]3)nc12 [ER-50891] | 0.927
CC1=NN(c2ccccc2)C(=O)C1 [Edaravone] | 0.958
O=C1OC2(c3ccccc31)c1cc(I)c(O)c(I)c1Oc1c2cc(I)c(O)c1I [Erythrosine] | 0.828
Cc1cc(-c2ccc(/N=N/c3ccc4c(S(=O)(=O)O)cc(S(=O)(=O)O)c(N)c4c3O)c(C)c2)ccc1/N=N/c1ccc2c(S(=O)(=O)O)cc(S(=O)(=O)O)c(N)c2c1O [Evans Blue] | 0.783
CCOc1c2c(c(OCC)c3ccccc13)C(=O)N(c1ccc(CC(=O)NS(=O)(=O)c3ccccc3)cc1)C2 [GW627368] | 0.854
CC(C)c1onc(-c2c(Cl)cccc2Cl)c1COc1ccc(/C=C/c2cccc(C(=O)O)c2)c(Cl)c1 [GW 4064] | 0.702
CC1=C(CCC(=O)O)c2cc3[nH]c(cc4nc(cc5[nH]c(cc1n2)c(C)c5C(C)O)C(C)=C4C(C)O)c(C)c3CCC(=O)O (stereo not drawn) [Hematoporphyrin] | 0.758
O=C(NCc1ccc(Oc2ccccc2)cc1)c1nc(-c2cc(Br)c(O)c(Br)c2)no1 [IOWH-032] | 0.901
Oc1ccc2ccccc2c1SSc1c(O)ccc2ccccc12 [IPA-3] | 0.881
C=CC(=O)c1ccc2ccccc2c1 [JAK3-inhibitor-V] | 0.817
Cc1noc(-c2ccc(CSCCC(=O)O)cc2)c1NC(=O)OC(C)c1ccccc1Cl (stereo not drawn) [Ki16425] | 0.710

Compound | Score
CC[C@@H](C(=O)[C@@H](C)[C@@H](O)[C@H](C)CCc1ccc(C)c(O)c1C(=O)O)[C@H]1O[C@](CC)([C@H]2CC[C@](O)(CC)[C@H](C)O2)C[C@@H]1C [Lasalocid] | 0.863
O=[N+]([O-])/C=C/c1ccc2c(c1)OCO2 [MNS] | 0.850
COc1cc(C[C@H](C)[C@H](C)Cc2ccc3c(c2)OCO3)ccc1O [Macelignan] | 0.803
O=C([O-])c1ccccc1-c1c2cc(Br)c(=O)cc-2oc2[c]([Hg+])c([O-])c(Br)cc12.[Na+].[Na+].[OH-] [Merbromin] | 0.993
Cc1cc(=O)n(-c2ccccc2)[nH]1 [N-demethylantipyrine] | 1.019
O=C(Nc1cccc(C(F)(F)F)c1)Nc1ccc(Br)cc1-c1nn[nH]n1 [NS-3623] | 0.752
CCCCCCCCCCCCc1ccc(S(=O)(=O)Nc2nncs2)cc1 [PHT-427] | 0.696
CC1(C)CCC(C)(C)c2cc(Cn3cccn3)c(/C=C/c3ccc(C(=O)O)cc3)cc21 [Palovarotene] | 0.763
C=CC1=C(C)c2cc3[nH]c(cc4nc(cc5[nH]c(cc1n2)c(C)c5CCC(=O)O)C(CCC(=O)O)=C4C)c(C)c3C=C [Protoporphyrin IX] | 0.914
CC1(C)CC[C@]2(NC(=O)C(C)(F)F)CC[C@]3(C)[C@H](C(=O)C=C4[C@@]5(C)C=C(C#N)C(=O)C(C)(C)[C@@H]5CC[C@]43C)[C@@H]2C1 [RTA-408] | 0.807
O=C1OC2(c3cc(I)c(O)c(I)c3Oc3c2cc(I)c(O)c3I)c2c(Cl)c(Cl)c(Cl)c(Cl)c21 [Rose-bengal-lactone] | 0.937
O=C1OC2(c3cc(I)c(O)c(I)c3Oc3c2cc(I)c(O)c3I)c2c(Cl)c(Cl)c(Cl)c(Cl)c21 [Rse-bengal] | 0.996
N[C@@H](Cc1cc(-c2ccc(Cl)cc2Cl)cc(CP(=O)(O)O)c1O)C(=O)O [SDZ-220-040] | 0.871
Oc1ccc(Nc2nc(-c3ccc(Cl)cc3)cs2)cc1 [SKI II] | 0.694
CC1=C(/C=C/C(=C/C=C/C(C)=C/C(=O)O)c2ccc(C)cc2)C(C)(C)CCC1 [SR-11302] | 0.733
O=C(/C=C/c1ccccc1)NC(NC(=S)Nc1ccc(Cl)cc1)C(Cl)(Cl)Cl (stereo not drawn) [Sal003] | 0.865
CC(C)=CCC/C(C)=C/CC/C(C)=C/CSc1ccccc1C(=O)O [Salirasib] | 0.717
O=C1C(CC[S+]([O-])c2ccccc2)C(=O)N(c2ccccc2)N1c1ccccc1 (stereo not drawn) [Sulfinpyrazone] | 0.823
O=S(=O)(O)c1ccc(-c2c3nc(c(-c4ccc(S(=O)(=O)O)cc4)c4ccc([nH]4)c(-c4ccc(S(=O)(=O)O)cc4)c4nc(c(-c5ccc(S(=O)(=O)O)cc5)c5ccc2[nH]5)C=C4)C=C3)cc1 [TPPS4] | 0.809
Cc1c(S(=O)(=O)O)oc2c1C(=O)C(=O)c1c-2ccc2c1CCCC2(C)C [Tanshinone IIA sulfonate (sodium), Tanshinone IIA sulfonate] | 0.981
Oc1cccc(-c2c3nc(c(-c4cccc(O)c4)c4ccc([nH]4)c(-c4cccc(O)c4)c4nc(c(-c5cccc(O)c5)c5ccc2[nH]5)CC4)C=C3)c1 [Temoporfin] | 0.699
O=C(O)C(=O)c1cn(Cc2ccccc2)c2ccc(-c3ccc(OC(F)(F)F)cc3)cc12 [Tiplaxtinin] | 0.836
O=C(Nc1ccc(Cl)cc1)Nc1ccc(Cl)c(Cl)c1 [Triclocarban] | 0.702
Cc1cc(F)c(Nc2ncnc3cc(OCc4ccccc4)ccc23)cc1O.Cl [ZM323881 (hydrochloride)] | 0.946
COc1cc(C(=O)NS(=O)(=O)c2ccccc2C)ccc1Cc1cn(C)c2ccc(NC(=O)OC3CCCC3)cc12 [Zafirlukast] | 0.801
AS-2034178 | 0.982
TC-I-2000 | 0.729
